Reference: PubChem BioAssay AID1845213 (Molecular Pharmacology Branch, DTP, NCI, 2023)
pIC50: −log10 of the molar value.

Test system: NCI-H841 complex tumor spheroid viability
Experiment: Anticancer human tumor NCI-H841 cell line growth inhibition;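 further: spheroids exposed to compounds for 7 days before readout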;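 on viability, T/C: 100% = DMSO vehicle control wells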
Settings: for pIC50: curve of first compound; for viability, T/C: stronger effect = lower value
Description: Multicellular complex tumor spheroid response to DNA repair inhibitors in combination with DNA-damaging drugs
This study explores the anticancer activities of DNA-damaging drugs and inhibitors of DNA damage repair, both as single agents and in combinations. Complex tumor spheroids comprised of malignant cells, endothelial cells and mesenchymal stem cells served as an in vitro model for human solid tumors. This model system incorporates physiologically relevant features and patient-derived or established malignant cell lines with clinically relevant genetic alterations from many tumor types. Twenty-six patient-derived or established malignant cell lines were evaluated representing sarcoma, melanoma, small cell lung cancer (SCLC), non-small cell lung cancer (NSCLC), as well as bladder, ovarian and pancreatic cancers. The concentration ranges selected for each drug and investigational agent were based upon clinically achievable concentrations if the clinical Cmax of the agent was known.
Compounds. The drugs and compounds olaparib (NSC753686), talazoparib (NSC767125), berzosertib (NSC777718), elimusertib (NSC800525), nedisertib (NSC802822), VX-984 (NSC792969), AZD-1390 (NSC803789), temozolomide (NSC362856), topotecan (NSC609699), trabectedin (NSC813783), staurosporine (NSC755774), and gemcitabine (NSC613327) were obtained from the National Cancer Institute (NCI) Developmental Therapeutics Program Chemical Repository. The FDA-approved anticancer drug set is available from the Developmental Therapeutics Program at https://dtp.cancer.gov/organization/dscb/obtaining/available_plates.htm. […] The stock solutions were prepared in dimethyl sulfoxide (DMSO, Sigma-Aldrich, St. Louis, MO, cat. D2650) at 400-fold the tested concentration and stored at -70 degrees C. Prior to their use, the stock solutions were diluted in fresh medium and the final DMSO concentration in the assay was 0.25% (v/v). All drugs and investigational agents were tested over a range starting from a high concentration at or near the clinical Cmax and decreasing in half-log increments. If the clinical Cmax for an agent had not been determined, the highest concentration tested was 10 microM.
Cell Lines. The patient-derived cancer cell (PDC) lines: 156681-154-R-J1-PDC, 283228-195-R-J1-PDC, 287954-098-R-J1-PDC, 292921-168-R-J2-PDC, 349418-098-R-PDC, 425362-245-T-J1-PDC, 556581-035-R-J1-PDC, and BL0293-F563-PDC were received from the NCI Patient-Derived Models Repository (PDMR, https://pdmr.cancer.gov). The established cell lines HS-SY-2 (RRID:CVCL_8719), MPNST, and SYO-1 (RRID:CVCL_7146) were obtained from the Sloan Kettering Institute. The alveolar soft parts sarcoma cell line ASPS-1 (RRID:CVCL_S738) was established at the NCI and grown from internal seed stocks. The following established cell lines were purchased from the American Type Culture Collection (ATCC, Manassas, VA): G-401 (ATCC, cat. CRL-1441, RRID:CVCL_0270), SW982 (ATCC, cat. HTB-93, RRID:CVCL_1734), VA-ES-BJ (ATCC, cat. CRL-2138, RRID:CVCL_1785), NCI-H719 (ATCC, cat. CRL-5837, RRID:CVCL_1582), NCI-H196 (ATCC, cat. CRL-5823, RRID:CVCL_1509), NCI-H841 (ATCC, cat. CRL-5845, RRID:CVCL_1595), NCI-H1618 (ATCC, cat. CRL-5879, RRID:CVCL_1480), NCI-H1876 (ATCC, cat. CRL-5902, RRID:CVCL_1503), DMS 114 (ATCC, cat. CRL-2066; RRID:CVCL_1174), NCI-H211 (ATCC, cat. CRL-5824; RRID:CVCL_1529), and SW 1271 (ATCC, cat. CRL-2177, RRID:CVCL_1716). The small cell lung cancer cell line COR-L88 was purchased from Sigma-Aldrich (cat. 92031917-1VL, RRID:CVCL_1141). The non-small cell lung cancer cell lines NCI-H226 (RRID:CVCL_1544) and NCI-H322M (RRID:CVCL_1557) were established at the NCI and grown from internal seed stocks. Pooled donor human umbilical vein endothelial cells (HUVEC, Lonza, cat. CC-2519) and human mesenchymal stem cells (hMSC, Lonza, cat. PT-2501) were purchased from Lonza (Walkersville, MD).
Cell Culture. All cells were maintained in an incubator at 37 degrees C and 5% CO2 with 95% humidity. […]

[1] = second compound 0.003 µM, first compound 0.00949 µM
[2] = second compound 0.003 µM, first compound 0.03 µM
[3] = second compound 0.003 µM, first compound 0.0949 µM
[4] = second compound 0.003 µM, first compound 0.3 µM
[5] = second compound 0.003 µM, first compound 0.949 µM
[6] = second compound 0.003 µM, first compound 3 µM
[7] = second compound 0.00949 µM, first compound 0.00949 µM
[8] = second compound 0.00949 µM, first compound 0.03 µM
[9] = second compound 0.00949 µM, first compound 0.0949 µM
[10] = second compound 0.00949 µM, first compound 0.3 µM
[11] = second compound 0.00949 µM, first compound 0.949 µM
[12] = second compound 0.00949 µM, first compound 3 µM
[13] = second compound 0.03 µM, first compound 0.00949 µM
[14] = second compound 0.03 µM, first compound 0.03 µM
[15] = second compound 0.03 µM, first compound 0.0949 µM
[16] = second compound 0.03 µM, first compound 0.3 µM
[17] = second compound 0.03 µM, first compound 0.949 µM
[18] = second compound 0.03 µM, first compound 3 µM
[19] = second compound 0.0949 µM, first compound 0.00949 µM
[20] = second compound 0.0949 µM, first compound 0.03 µM
[21] = second compound 0.0949 µM, first compound 0.0949 µM
[22] = second compound 0.0949 µM, first compound 0.3 µM
[23] = second compound 0.0949 µM, first compound 0.949 µM
[24] = second compound 0.0949 µM, first compound 3 µM
[25] = second compound 0.3 µM, first compound 0.00949 µM
[26] = second compound 0.3 µM, first compound 0.03 µM
[27] = second compound 0.3 µM, first compound 0.0949 µM
[28] = second compound 0.3 µM, first compound 0.3 µM
[29] = second compound 0.3 µM, first compound 0.949 µM
[30] = second compound 0.3 µM, first compound 3 µM

| Structure (SMILES) | pIC50 (second compound 0.003 µM) | pIC50 (second compound 0.00949 µM) | pIC50 (second compound 0.03 µM) | pIC50 (second compound 0.0949 µM) | pIC50 (second compound 0.3 µM) | viability, T/C [3] [%] | viability, T/C [4] [%] | viability, T/C [5] [%] | viability, T/C [6] [%] | viability, T/C [9] [%] | viability, T/C [10] [%] | viability, T/C [11] [%] | viability, T/C [12] [%] | viability, T/C [15] [%] | viability, T/C [16] [%] | viability, T/C [17] [%] | viability, T/C [18] [%] | viability, T/C [21] [%] | viability, T/C [22] [%] | viability, T/C [23] [%] | further results |
| --- | --- | --- | --- | --- | --- | --- | --- | --- | --- | --- | --- | --- | --- | --- | --- | --- | --- | --- | --- | --- | --- |
| CNCc1ccc(-c2cc(-c3nc(-c4ccc(S(=O)(=O)C(C)C)cc4)cnc3N)on2)cc1 + CC[C@@]1(O)C(=O)OCc2c1cc1n(c2=O)Cc2cc3c(CN(C)C)c(O)ccc3nc2-1 | 7.25 | > 8.02 | > 8.02 | > 8.02 | > 8.02 | 25.8 | 5.41 | 1.29 | 0.44 | 7.71 | 1.95 | 1 | 0.31 | 1.25 | 1.64 | 0.71 | 0.17 | 0.92 | 0.89 | 0.76 | viability, T/C [1]: 89.3%; viability, T/C [2]: 78.7%; viability, T/C [7]: 49.2%; viability, T/C [8]: 35.6%; viability, T/C [13]: 1.53%; viability, T/C [14]: 4.09%; viability, T/C [19]: 1.32%; viability, T/C [20]: 3.66%; viability, T/C [24]: 0.15%; viability, T/C [25]: 1.45%; viability, T/C [26]: 1.41%; viability, T/C [27]: 1.07%; viability, T/C [28]: 0.61%; viability, T/C [29]: 2.25%; viability, T/C [30]: 0.16% |
| Cn1ncnc1[C@H]1c2n[nH]c(=O)c3cc(F)cc(c23)N[C@@H]1c1ccc(F)cc1 + CC[C@@]1(O)C(=O)OCc2c1cc1n(c2=O)Cc2cc3c(CN(C)C)c(O)ccc3nc2-1 | > 8.02 | > 8.02 | > 8.02 | > 8.02 | > 8.02 | 29.9 | 8.52 | 1.44 | 1.96 | 2.55 | 1.48 | 1.52 | 2.21 | 1.39 | 1.4 | 1.41 | 1.81 | 1.61 | 1.69 | 1.52 | viability, T/C [1]: 47.7%; viability, T/C [2]: 40.1%; viability, T/C [7]: 5.87%; viability, T/C [8]: 2.75%; viability, T/C [13]: 1.67%; viability, T/C [14]: 1.74%; viability, T/C [19]: 1.86%; viability, T/C [20]: 1.68%; viability, T/C [24]: 1.31%; viability, T/C [25]: 0.97%; viability, T/C [26]: 0.99%; viability, T/C [27]: 0.94%; viability, T/C [28]: 0.9%; viability, T/C [29]: 0.63%; viability, T/C [30]: 0.52% |
| O=C(c1cc(Cc2n[nH]c(=O)c3ccccc23)ccc1F)N1CCN(C(=O)C2CC2)CC1 + CC[C@@]1(O)C(=O)OCc2c1cc1n(c2=O)Cc2cc3c(CN(C)C)c(O)ccc3nc2-1 | 5.83 | > 7.02 | > 7.02 | > 7.02 | > 7.02 | 79.5 | 75.1 | 60.5 | 33.6 | 19.2 | 17.4 | 12.7 | 3.98 | 1.3 | 1.56 | 1.06 | 1.3 | 7.65 | 1.58 | 1.52 | viability, T/C (second compound 0.003 µM, first compound 9.49 µM): 6.04%; viability, T/C (second compound 0.003 µM, first compound 30 µM): 2.34%; viability, T/C (second compound 0.00949 µM, first compound 9.49 µM): 7.48%; viability, T/C (second compound 0.00949 µM, first compound 30 µM): 2.29%; viability, T/C (second compound 0.03 µM, first compound 9.49 µM): 1.43%; viability, T/C (second compound 0.03 µM, first compound 30 µM): 1.97%; viability, T/C [24]: 1.38%; viability, T/C (second compound 0.0949 µM, first compound 9.49 µM): 1.27%; viability, T/C (second compound 0.0949 µM, first compound 30 µM): 1.95%; viability, T/C [27]: 0.94%; viability, T/C [28]: 1.16%; viability, T/C [29]: 0.93%; viability, T/C [30]: 0.82%; viability, T/C (second compound 0.3 µM, first compound 9.49 µM): 0.61%; viability, T/C (second compound 0.3 µM, first compound 30 µM): 0.6% |
